The source of these data is patent US20020173424A1, “Heterocyclyl-substituted benzoylcyclohexandiones, their preparation, and their use as herbicides” (priority 2000, published 2002).

One data set concerns Setaria species. Put plainly: Comparative experiment, post-emergence action against Setaria species. It is filed as in vivo. The following applies: even at a lower application rate. The protocol:
Seeds of monocotyledonous and dicotyledonous weeds are placed in sandy loam soil in cardboard pots, covered with soil and grown in the greenhouse under good growth conditions. Two to three weeks after sowing, the experimental plants are treated at the three-leaf stage. The compounds according to the invention, which are formulated as wettable powders or as emulsion concentrates, are sprayed at a rate of 1 kg of active substance or less per hectare (converted) onto the green plant organs at an application rate of 600 to 800 l of water per ha (converted). After the experimental plants have remained in the greenhouse for approx. 3 to 4 weeks under optimal growth conditions, the effect of the compositions is scored visually in comparison with untreated controls. The compounds according to the invention also have a good herbicidal action against a broad spectrum of economically important monocotyledonous and dicotyledonous harmful plants when applied post-emergence. A large number of compositions according to the invention have an outstanding herbicidal action against the harmful plants.
5. Comparative Experiments
Analogously to the experimental conditions mentioned under item 2 (post-emergence herbicidal action), compound No. 1.1 according to the invention was compared with a prior-art compound with regard to its effect against Setaria species.

Consider `CS(=O)(=O)c1ccc(C(=O)C2C(=O)CCCC2=O)c(Cl)c1C1=NOC2OCCC12` (centres unmarked) [1.1, 2-[2-chloro-4-methylsulfonyl-3-(3a,4,5,6a-tetrahydrofuro-[3,2-d]isoxazol-3-yl)benzoyl]cyclohexane-1,3-dione], for which the “action against Setaria species compared with prior-art compound” value in the data set on Setaria species is reported as “more potent action against Setaria species than the prior-art compound”. Compound `CCS(=O)(=O)c1ccc(C(=O)C2C(=O)CCCC2=O)c(Cl)c1C1=NOC2OCCC12` (centres unmarked) [1.2, 2-[2-chloro-4-ethylsulfonyl-3-(3a,4,5,6a-tetrahydrofuro[3,2-d]isoxazol-3-yl)benzoyl]cyclohexane-1,3-dione] returned a melting point of 99 °C.
